{"source": "patent US20080206422A1", "about": "“Flavour Modulating Substances” (QUEST INTERNATIONAL SERVICES B.V., priority 2004, published 2008)", "key": {"[1]": {"experiment": "Tasting session of tap water solutions by a professional panel", "procedure": "For a tasting session the following solutions were prepared: • 1) A solution of 0.025% of a composition as prepared in example 1 in tap water; • 2) A solution of 0.025% of a composition as prepared in example 1 and 0.3% NaCl in tap water; • 3) A solution of 0.025% of a composition as prepared in example 1, 0.3% NaCl and 0.03% mono sodium glutamate in tap water; • 4) A solution of 0.005% of a composition as prepared in example 2 in tap water; • 5) A solution of 0.005% of a composition as prepared in example 2 and 0.3% NaCl in tap water; and • 6) A solution of 0.005% of a composition as prepared in example 2, 0.3% NaCl and 0.03% mono sodium glutamate in tap water. • All samples were tasted by a professional panel."}, "[2]": {"experiment": "Tasting of fish bouillon samples by a professional panel", "settings": "sample 5: fish bouillon + 20 ppm of composition of example 2", "procedure": "(§1) Six samples were prepared:\n2. Fish bouillon+100 ppm of a composition as prepared in example 1;\n5. Fish bouillon+20 ppm of a composition as prepared in example 2; and\n(§2) All samples were tasted by a professional panel. There was general agreement about the differences in taste between the samples."}, "[3]": {"experiment": "Tasting of Nam Pla (Thai fish sauce) samples by a professional panel", "settings": "sample 6: Nam Pla + 20 ppm of composition of example 2", "procedure": "as §1\n3. Nam Pla* ex Unilever Thailand;\n4. Nam Pla ex Unilever Thailand+100 ppm of a composition as prepared in example 1;\n6. Nam Pla ex Unilever Thailand+20 ppm of a composition as prepared in example 2.\nNam Pla is a Thai fish sauce produced from a mixture of fish (anchovy), salt and sugar that is fermented for more than 6 months at 30-35° C. Protein hydrolysate and lipid oxidation products are formed through microbiological and enzymatic breakdown of the fish.\nas §2"}}, "data": [{"compound": "CC(O)C(=O)NCCc1ccc(O)cc1", "note": "(stereo not drawn) [example 2, N-lactoyl tyramine]", "values": [{"measurement": "taste description by professional panel", "setting": "[1]; solution 4): 0.005% of composition of example 2 in tap water", "value": "a clean mouthfeel, body and thickness"}, {"measurement": "taste description by professional panel", "setting": "[1]; solution 5): 0.005% of composition of example 2 and 0.3% NaCl in tap water", "value": "a longlasting effect, a clean mouthfeel, body and thickness and as bouillon-like"}, {"measurement": "taste description by professional panel", "setting": "[1]; solution 6): 0.005% of composition of example 2, 0.3% NaCl and 0.03% mono sodium glutamate in tap water", "value": "a longlasting effect, a strong clean mouthfeel, body and thickness and as strong, natural and complex bouillon-like"}, {"measurement": "difference in taste compared with plain fish bouillon (sample 1)", "setting": "[2]", "value": "more body and mouthfeel, a stronger sweet taste impression and a more longlasting effect"}, {"measurement": "difference in taste compared with plain Nam Pla (sample 3)", "setting": "[3]", "value": "more body and mouthfeel, a stronger sweet taste impression and a more longlasting effect"}, {"measurement": "fermented fish character and perceived quality compared with plain Nam Pla (sample 3)", "setting": "[3]", "value": "a more rounded, natural fermented fish character and was perceived as a higher quality Nam Pla"}]}]}
